Where “and” joins values, the source holds several entries; their conditions need not be identical. Identical values can stand only once.
Target: T1, Delta-Opioid Receptor (Mus musculus, UniProt P32300)
T1 construct: host or cells: NG108-15
Test: Delta-opioid receptor binding: inhibition of specific binding of 3H NID to intact NG108-15 cells
Conditions: for EC50: EC50 (M), competition with 3H NID, intact NG108-15 cells, 2 hr at 37° C.
Description: To do so, 1 to 4 serial dilutions of test compounds and naltrindole (NID, Sigma) are prepared to generate solutions with concentrations ranging from 10^−3 to 10^−14 M in 50 mM Tris buffer, pH 7.5. ^3H NID (American Radiolabeled Chemicals, St. Louis, Mo., specific activity 49 dpm/10^−15 mol) is prepared in Tris at a concentration of 10^−9 M. Cultured cells of the neruablastoma/glioblastoma hybrid cell line NG108-15 (American Type Culture Collection) are briefly trypsinized, washed with media, and resuspended at 6×10^5 cells/mL. 20 μL of test compound or NID solution and 20 μL of ^3H NID are added to each of 96 wells of a Multiscreen assay system (Millipore) MAFB. 160 μL of cell suspension in Dulbecco's MEM+HAT with 10% Fetal Bovine Serum are added. The reactions are allowed to equilibrate 2 hr at 37° C., vacuum filtered, washed 2× with 200 μL ice cold Tris buffer and air dried. The filters are punched out of the plate into scintillation vials and mixed on a shaker overnight before counting.
Data is analyzed by the Prism software package (GraphPad Software, Inc., San Diego, Calif.) using a non-linear curve fit routine for one site competitive binding.

T1 sequence (P32300 whole entry): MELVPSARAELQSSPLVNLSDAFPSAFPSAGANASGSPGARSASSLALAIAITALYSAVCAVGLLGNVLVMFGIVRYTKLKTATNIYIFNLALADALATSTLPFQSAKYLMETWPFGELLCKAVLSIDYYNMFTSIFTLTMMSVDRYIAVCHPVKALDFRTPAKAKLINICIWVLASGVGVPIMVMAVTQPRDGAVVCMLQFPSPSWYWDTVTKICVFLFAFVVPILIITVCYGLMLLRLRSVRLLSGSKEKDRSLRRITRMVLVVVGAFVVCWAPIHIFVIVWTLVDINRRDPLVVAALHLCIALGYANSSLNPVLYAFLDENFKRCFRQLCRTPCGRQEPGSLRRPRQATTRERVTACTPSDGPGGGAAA

| SMILES | EC50 | Test/Control (ratio of EC50 of test compound to EC50 of NID in the same test) | fold lower in affinity than NID (summary of Table 1) |
| --- | --- | --- | --- |
| Oc1ccc2c3c1O[C@H]1c4[nH]c5ccccc5c4C[C@@]4(O)[C@@H](C2)N(CC2CC2)CC[C@]314 [NID, naltrindole, reference compound] | 4.2e-09 M and 1.8e-09 M | – | – |
| O=C(O)CN1CCN(CC(=O)O)CCN(CC(=O)O)C(Cc2ccc(NC(=O)CCCCCNC(=O)Cn3c4c(c5ccccc53)CC3(O)C5Cc6ccc(O)c7c6C3(CCN5CC3CC3)C4O7)cc2)CN(CC(=O)O)CC1 (stereo not shown) [NID-DOTA] | 1.2e-08 M | 2.8 | about 3 fold |
